Where two headings read alike, the source gives them in different places.

For assay [1], the system named is HCT116 tumor xenografts. The experiment in a line: Immunohistochemistry of HCT116 xenograft tumor sections (CD31, Ki67, p-p44/42 MAPK, TUNEL). Format: in vivo, mice. As to the method: To better understand the mechanism of antitumor activities in vivo, immunohistochemistry was performed using tumor tissues isolated from HCT116 at the end of the treatment. […] Furthermore, we investigated the activity of YLT192 on apoptosis in HCT116 xenograft tumors by terminal deoxynucleotidyl transferase (dUTP) nick end labeling (TUNEL) staining.
Tumour tissues obtained from the mice bearing HCT116 tumors were subjected to immunohistological analysis. Briefly, at the end of the treatment, mice were killed and tumor tissues were obtained. Then CD31 staining was conducted using frozen sections of tissue embedded in optimum cutting temperature[49] and immunohistological detection of anti-Ki67 and p-p44/42 MAPK were performed according to the manufacture's instructions using paraffin-embedded sections of tumor[50]. Apoptotic cells in the tumor tissue were detected by terminal deoxynucleotidyl transferase-mediated dUTP nick end-labeling (TUNEL) staining using an apoptotic cell detection kit (Merck Millipore).

Assay [2] has as its system HCT116. The experiment in a line: Inhibition of tumor cell growth. It is filed as cell-based. The following applies: HCT-116; HCT116, human colorectal carcinoma; 48 hour treatment; means ± SD, n=3. The source says:
Data are means ± SD, n=3.
cell line cell type IC50(μM)

The subject of assay [3] is tumor cells. Nature of the assay: Cancer cell viability assays, whole panel. It is filed as cell-based.
For assay [4], the system named is HCT116 cells. Nature of the assay: EdU incorporation assay. Format: cell-based, human. The note with it: 24 h treatment, concentration-dependent. The protocol:
(§1) The proliferative inhibitory ability of YLT192 on tumor cells was investigated. […] Inhibition of cell proliferation is a possible approach for cancer treatment. EdU incorporation assay was performed to investigate the anti-proliferative effects of YLT192 against U251 and HCT116 cells.
(§2) Figure 4 Inhibitory effects of YLT192 on tumor cells. (A) YLT192 inhibited U251 and HCT116 cells proliferation. The EdU incorporation assay was conducted on U251 and HCT116 cells after treated with YLT192 for 24 hours. The EdU-positive (red fluorescent staining) cells and Hoechst staining (blue fluorescent staining) cells represented proliferating and total cells in the fluorescent images, respectively (100×). Quantification was shown on the right panels. (B) YLT192 induced apoptosis of HCT116 cells. HCT116 cells were treated with YLT192 or vehicle for 48 hours followed by flow cytometric analysis of annexin V-FITC and PI staining. The proportion of early apoptotic cells (annexin V positive) and late apoptotic cells (annexin V and PI positive cells) were shown. Typical apoptosis-related proteins caspase 3 and Bax were detected by western blot. Each has the expression of β-actin as internal control. […] U251 and HCT116 cells were treated with YLT192 or vehicle for 48 hours and the expression of protein in different signaling pathways were detected by western blot with specific antibodies. […]

In assay [5] the test system is U251 cells. The experiment in a line: EdU incorporation assay. It is filed as cell-based, human. The note with it: 24 h treatment, concentration-dependent. As to the method:
as §1, §2

`CNC(=O)c1cc(Oc2ccc(NC(=O)c3cccc(OC)c3)cc2)ccn1` [YLT192]: the “apoptotic cells in the tumor tissues, TUNEL staining” value in assay [1] (100 mg/kg) is “increased apoptotic cells”. Further, the “phosphorylation of p44/42 MAPK (p-ERK) in tumor tissues” value in assay [1] (100 mg/kg) was “significant decrease”. The “reduction of microvessel density (MVD)” value in assay [1] (100 mg/kg oral daily, anti-CD31, vs vehicle) was found to be 69%. Further, in assay [1] (50 and 100 mg/kg, end of treatment), the “Ki67 staining in tumor tissues” value is “significant reduction”. The IC50 in assay [2] is 7.4 ± 0.5 µM; in assay [3] (range for most tumor cell lines of the panel, read-out: Most IC50 against the tumor cells), 6 to 20 µM; in assay [3] (range over the cancer cell panel, read-out: IC50 values in cancer cell viability assays), 6 to 30 µM. Also, the “percentage of proliferating cells, EdU incorporation” value in assay [4] and in assay [5] was “decreased a lot” throughout.

As a reminder, the IC50 is the midpoint of a concentration-inhibition curve.

The values are drawn from publication PMC4129416, “YLT192, a Novel, Orally Active Bioavailable Inhibitor of VEGFR2 Signaling with Potent Antiangiogenic Activity and Antitumor Efficacy in Preclinical Models” (Scientific Reports, 2014).
